Data reported in patent publication US20170095440A1, “METHOD OF TREATING CANINE PANCREATITIS” (CK9, LLC, priority 2014, published 2017).
Where “and” joins values, the source holds several entries; their conditions need not be identical. Identical values can stand only once. Entries after “also recorded” stand apart in the source; their conditions may differ.

Assays:
[1] = system: Han Wistar rats; assay: Multiple-dose tolerance study, oral gavage 3 times a day for 7 days; format: in vivo, rat
Method: The following parameters and end points were evaluated in the multiple-dose phase of this study: clinical signs, body weights, body weight changes, food consumption, and gross necropsy findings.
A total of 18 male and 24 female Han Wistar rats were received from Charles River Laboratories, Raleigh, N.C. The animals were examined and weighed on the day following receipt. The rising-dose phase animals were 8 weeks old and weighed between 176 g and 255 g at initiation of dosing and the multiple-dose phase animals were 8 weeks old and weighed between 172 g and 259 g at initiation of dosing.
For the multiple-dose study, the test and control articles were administered to the appropriate animals 3 times a day by oral gavage from Days 1 to 7. The doses were administered 8 hours±30 minutes apart. The dose volume for each animal was based on the most recent body weight measurement. The doses were given using a syringe with attached gavage cannula. The first day of dosing was designated as Study Day 1.
Cage side observations were performed once daily, beginning during Week −1 and throughout the dosing phase. During the dosing period, these observations were performed 1 to 3 hours post the first daily dose.
The animals were removed from the cage and a detailed clinical observation was performed on the day of randomization and Days 1 and 8. Each animal was weighed on the day of randomization (Day −4) and Days 1 to 8. Food consumption was quantitatively measured for each animal weekly, starting Day −4, throughout the dosing phase.
Multiple-dose study animals were subjected to a complete necropsy examination, which included evaluation of the carcass and musculoskeletal system; all external surfaces and orifices; cranial cavity and external surfaces of the brain; and thoracic, abdominal, and pelvic cavities with their associated organs and tissues. Necropsy examinations were conducted under the supervision of a board-certified veterinary pathologist.
For the multiple-dose study, numerical data collected on scheduled occasions for the listed variables were analyzed as indicated according to sex and occasion. Descriptive statistics number, mean and standard deviation (or % CV or SE when deemed appropriate) were reported whenever possible. Inferential statistics were performed according to the matrix below when possible, but excluded semi-quantitative data, and any group with less than 3 observations.
Levene's test was used to assess the homogeneity of group variances parametric assumption at the 5% significance level. Datasets with at least 3 groups were compared using an overall one-way ANOVA F-test or Kruskal-Wallis test (if parametric assumptions were not met) at the 5% significance level. The above pairwise comparisons were conducted using a two-sided Dunnett's or Dunn's test, respectively, if the overall test was significant. Datasets with 2 groups were compared using a two-sided t-test or Wilcoxon Rank-Sum test, respectively. All significant pairwise comparisons were reported at the 0.1%, 1%, and 5% significance levels.

[2] = system: dogs with suspected chronic pancreatitis; assay: Serum C-reactive protein before and after treatment, clinical trial; format: in vivo, dog; details: for Change in serum C-reactive protein, pre- vs post-treatment: methanesulfonate
Method: Treatment effects on overall health status, quality of life, and clinical signs were also evaluated with serum biochemistry profiles, complete blood counts, and owner questionnaires.
Dogs were identified by screening current submissions to the Gastrointestinal Laboratory at Texas A&M indicative of pancreatitis (canine pancreas-specific lipase≧400 μg/L) using an immunoassay for measurement of canine pancreas-specific lipase in canine serum known as the spec CPL® Test (IDEXX, Laboratories). A number of potential study participants were directly referred to the investigator by veterinarians, based on positive pet-side SNAP cPL® Test (IDEXX Laboratories, Westbrook, Me., USA) results and concomitant clinical signs. After ascertaining individual suitability of a patient with the referring veterinarian, serum canine pancreas-specific lipase concentration, serum biochemistry profile, and complete blood count were evaluated or re-evaluated 12±4 days after collection of the initial sample submission to the Gastrointestinal Laboratory. Based on the assumption that consecutive canine pancreas-specific lipase elevations indicate chronic pancreatitis, enrollment was offered for patients with canine pancreas-specific lipase concentrations≧400 μg/L, serum triglyceride concentrations below 500 mg/dL, and no indication of hepatic, renal, or other organ disease. […] Owner consent was required prior to phlebotomy and for enrollment into the trial.
Twelve enrolled dogs received camostat capsules at a dosage of 4 mg/kg q 8 hrs, for a total dose of 12 mg/kg q 24 hrs. […] Individual patients were medicated for between 21 to 31 days.
Blood samples were collected before beginning the treatment and after completion of the treatment period. Complete blood count (red blood cell count, hematocrit, mean corpuscular volume, mean corpuscular hemoglobin, mean corpuscular hemoglobin concentration, differential and absolute white blood cell count, red blood cell count, hemoglobin, platelet estimate, red blood cell morphology, white blood cell morphology, and hemoparasites) was evaluated at the Texas Veterinary Medical Diagnostic Laboratory (TVMDL). A serum chemistry profile with electrolytes (glucose, blood urea nitrogen, creatinine, calcium, phosphorus, albumin, total protein, total bilirubin, alkaline phosphatase, alanine amino transferase, aspartate amino transferase, γ-glutamyl transferase, cholesterol, triglycerides, globuline, sodium, potassium, and chloride) was performed on a SIRRUS analyzer (Stanbio, Boerne, Tex., USA). […]
Pre-treatment and post-treatment results for all diagnostic tests were statistically analyzed using Prism 6 (GraphPad Software, La Jolla, Calif., USA). […]

[3] = system: rats; details: cited from earlier work
[4] = system: dogs with suspected chronic pancreatitis; assay: Serum C-reactive protein before and after treatment, clinical trial; format: in vivo, dog; details: 8 mg/kg q 8 hrs, n=17

CN(C)C(=O)COC(=O)Cc1ccc(OC(=O)c2ccc(NC(=N)N)cc2)cc1 [Camostat Mesilate, N,N-dimethylcarbamoylmethyl-4-(4-guanidinobenzoyloxy)phenylacetate methanesulfonate]
Clinical observations ([1]; 1300 mg/kg/day, Day 8, methanesulfonate): Most of the 1300 mg/kg/day animals were noted to be thin and 3/3 males and 2/3 females were noted to be thin
Necropsy observation not considered test article related ([1]; 1300 mg/kg/day, male): small seminal vesicle was noted in one 1300 mg/kg/day male
Overall conclusion of multiple dosing ([1]; 3 times per day for 7 days): body weight loss and decreased food consumption
Gross necropsy findings ([1]; 100, 550, 1300 mg/kg/day): no toxicologically meaningful gross necropsy findings
Survival ([1]; 100, 550, 1300 mg/kg/day, 3 times a day, 7 days, euthanasia Day 8, methanesulfonate): All animals survived to scheduled euthanasia; also recorded: No animals died
Mean body weights compared to controls ([1]; 100 or 550 mg/kg/day): no statistically significant or toxicologically meaningful differences
Clinical observations ([1]; 100 or 550 mg/kg/day, 7 days): no clinical observations noted
Mean body weight, deviation from controls ([1]; 100 or 550 mg/kg/day, Day 8): ≤ 4.4%
Mean food consumption, statistical comparison with controls ([1]; Days 1 to 7, all dose groups): no statistically significant differences
Mean body weight lower than controls ([1]; females, Day 8, 1300 mg/kg/day, statistically decreased Days 5 to 8): 19%
Body weight change Days 1 to 8 ([1]; females, 1300 mg/kg/day): −13%
Mean body weight lower than controls ([1]; males, Day 8, 1300 mg/kg/day, statistically decreased Days 4 to 8): 25%
Body weight change Days 1 to 8 ([1]; males, 1300 mg/kg/day): −15%
High-dose level chosen from the tolerance study ([1]; rats, oral, 3 times per day): 1300 mg/kg/day
Change in serum C-reactive protein, pre- vs post-treatment ([2]; 4 mg/kg q 8 hrs, n=12): no significant difference; also recorded: did not change significantly
Serum C-reactive protein concentration post-treatment (median) ([2]; 4 mg/kg q 8 hrs, n=12, pre-treatment median 0.8, post range 0.0-9.4, p=0.1543): 0.6 mg/L
Serum C-reactive protein concentration post-treatment (median) ([2]; all treated dogs combined, n=29, pre-treatment median 0.2, p=0.0595): 0.1 mg/L
Change in serum C-reactive protein, pre- vs post-treatment ([2]; all treated dogs combined, n=29, trend towards a decrease): no statistically significant difference; also recorded: did not lead to any significant changes
Clinical signs up to 30 minutes postdose ([3]; 1300 mg/kg/day): preening and a slight decrease in locomotor activity
Body weight gain ([3]; 550 and 1300 mg/kg/day): suppressed
Clinical signs immediately after dosing ([3]; all treated groups: 100, 235, 550, 1300 mg/kg/day, 90 and 180 days): hypersalivation
Change in serum C-reactive protein, pre- vs post-treatment ([4]; methanesulfonate): no significant difference; also recorded: did not change significantly
Serum C-reactive protein concentration post-treatment (median) ([4]; pre-treatment median 0.1, post range 0.1-6.8, p=0.25): 0.1 mg/L
